Biological target: SARS-COV-2 3CLpro (having a P132H mutation, 3CLpro^P132H) (Severe acute respiratory syndrome coronavirus 2, UniProt P0DTD1, P3395H)
Assay type: biochemical

Row | Compound | Inhibition Rate ([Cpd.]=40 uM)
1 | O=C(c1cc(=O)c2ccccc2o1)N1CCc2c([nH]c3ccccc23)C1c1ccccc1F (stereo not shown) [E22, O=C(c1cc(=O)c2ccccc2o1)N1CCc2c([nH]c3ccccc23)C1c1ccccc1F] | < 0.5
2 | CCN(CC)C(=O)c1sc2c(c1C)c(=O)n(-c1ccccc1)c(=O)n2Cc1cccc(Cl)c1 [E15, CCN(CC)C(=O)c1sc2c(c1C)c(=O)n(-c1ccccc1)c(=O)n2Cc1cccc(Cl)c1] | < 0.5
3 | O=C(c1cccc(O)c1)N1C[C@@H](c2cc(F)cc(F)c2)[C@@H]2[C@H]1C1CCN2CC1 [D24, O=C(c1cccc(O)c1)N1C[C@@H](c2cc(F)cc(F)c2)[C@@H]2[C@H]1C1CCN2CC1] | < 0.5
4 | COc1ccc(/N=C(/Nc2ccc(OC)cc2)c2cccc3ccccc23)cc1 [E10, COc1ccc(/N=C(/Nc2ccc(OC)cc2)c2cccc3ccccc23)cc1] | < 0.5
5 | C[C@@]1(O)C[C@H](O)CN(C(=O)[C@@H](N)Cc2ccc(O)cc2)C[C@H]1n1cnc2c(N)nc(N)nc21 [D20, C[C@@]1(O)C[C@H](O)CN(C(=O)[C@@H](N)Cc2ccc(O)cc2)C[C@H]1n1cnc2c(N)nc(N)nc21] | < 0.5
6 | O=C(CN1C(=O)NC2(CCCC2)C1=O)Nc1ccccc1C(=O)Nc1ccc2c(c1)OCO2 [D2, O=C(CN1C(=O)NC2(CCCC2)C1=O)Nc1ccccc1C(=O)Nc1ccc2c(c1)OCO2] | 0.56
7 | Cn1c(NC(=O)c2cnn3c(C(F)(F)F)cc(-c4cccc5ccccc45)nc23)nc2ccccc21 [E1, Cn1c(NC(=O)c2cnn3c(C(F)(F)F)cc(-c4cccc5ccccc45)nc23)nc2ccccc21] | 0.82
8 | Cc1c(C(=O)NCCC2=CCCCC2)sc2ncnc(N(C)c3ccccc3)c12 [D3, Cc1c(C(=O)NCCC2=CCCCC2)sc2ncnc(N(C)c3ccccc3)c12] | 0.63
9 | COCc1ccc(C(=O)N(Cc2ccccc2)Cc2nc3ccccc3c(=O)[nH]2)cc1 [E20, COCc1ccc(C(=O)N(Cc2ccccc2)Cc2nc3ccccc3c(=O)[nH]2)cc1] | < 0.5
10 | CC(=O)N1CCc2c(sc3c2c(=O)n(-c2ccccc2C)c(=O)n3Cc2cc(C)ccc2C)C1 [E16, CC(=O)N1CCc2c(sc3c2c(=O)n(-c2ccccc2C)c(=O)n3Cc2cc(C)ccc2C)C1] | < 0.5
11 | COc1cccc(-n2c(=O)c3c(C)c(C(=O)N(C)C)sc3n(Cc3cccc(F)c3)c2=O)c1 [E14, COc1cccc(-n2c(=O)c3c(C)c(C(=O)N(C)C)sc3n(Cc3cccc(F)c3)c2=O)c1] | < 0.5
12 | COc1ccccc1-n1c(=O)c2c3c(sc2n(Cc2cccc(Cl)c2)c1=O)CN(C(C)=O)CC3 [D7, COc1ccccc1-n1c(=O)c2c3c(sc2n(Cc2cccc(Cl)c2)c1=O)CN(C(C)=O)CC3] | < 0.5
13 | C/C(=N\Nc1nc2c(c(=O)[nH]c(=O)n2C)n1Cc1cccc2ccccc12)c1ccc(O)cc1 [D1, C/C(=N\Nc1nc2c(c(=O)[nH]c(=O)n2C)n1Cc1cccc2ccccc12)c1ccc(O)cc1] | 1.49
14 | CC(C)C(NC(=O)c1ccccc1Cl)C(=O)OCC(=O)Nc1cccc(S(N)(=O)=O)c1 (stereo not shown) [D6, CC(C)C(NC(=O)c1ccccc1Cl)C(=O)OCC(=O)Nc1cccc(S(N)(=O)=O)c1] | < 0.5
15 | CC(C)[C@H](NS(=O)(=O)c1ccccc1F)C(=O)OCC(=O)Nc1cccc(S(N)(=O)=O)c1 [D13, CC(C)[C@H](NS(=O)(=O)c1ccccc1F)C(=O)OCC(=O)Nc1cccc(S(N)(=O)=O)c1] | < 0.5
16 | Cc1ccc(N2C(=O)N(CC(=O)Nc3cccc(S(N)(=O)=O)c3)C(=O)C2C)cc1 (stereo not shown) [D11, Cc1ccc(N2C(=O)N(CC(=O)Nc3cccc(S(N)(=O)=O)c3)C(=O)C2C)cc1] | < 0.5
17 | O=CN1CCCN(C(=O)CC2C(=O)NCCN2Cc2cccc(Oc3ccccc3)c2)CC1 (stereo not shown) [D16, O=CN1CCCN(C(=O)CC2C(=O)NCCN2Cc2cccc(Oc3ccccc3)c2)CC1] | < 0.5
18 | CC(=O)N1C(C(=O)N(CCc2ccccc2)Cc2ccccc2)CSC1c1ccccc1O (stereo not shown) [E7, CC(=O)N1C(C(=O)N(CCc2ccccc2)Cc2ccccc2)CSC1c1ccccc1O] | 0.63
19 | CC(=O)N1CCc2c(sc3c2c(=O)n(Cc2ccccc2)c(=O)n3Cc2cccc(C)c2)C1 [E13, CC(=O)N1CCc2c(sc3c2c(=O)n(Cc2ccccc2)c(=O)n3Cc2cccc(C)c2)C1] | < 0.5
20 | CCOc1ccc(N(Cc2nnc3n2CCCCC3)C(=O)Nc2ccc(C)cc2)cc1 [E12, CCOc1ccc(N(Cc2nnc3n2CCCCC3)C(=O)Nc2ccc(C)cc2)cc1] | < 0.5
21 | O=C(Nc1ccccc1)N1CCCC(C(=O)N2CC(C(=O)N3CCCCC3)Oc3ccccc32)C1 (stereo not shown) [D19, O=C(Nc1ccccc1)N1CCCC(C(=O)N2CC(C(=O)N3CCCCC3)Oc3ccccc32)C1] | < 0.5
22 | COc1cccc(CN(CCc2c[nH]c3ccccc23)C(=O)c2ccnn2C)c1 [E19, COc1cccc(CN(CCc2c[nH]c3ccccc23)C(=O)c2ccnn2C)c1] | < 0.5
23 | COc1ccccc1-n1c(=O)c2c3c(sc2n(Cc2ccccc2)c1=O)CN(C(C)=O)CC3 [D17, COc1ccccc1-n1c(=O)c2c3c(sc2n(Cc2ccccc2)c1=O)CN(C(C)=O)CC3] | < 0.5

Row | Compound | Inhibition Rate ([Cpd.]=40 uM)
24 | O=C1/C(=C\NN(Cc2ccccc2)c2ccccc2)c2ccccc2C(=O)N1c1cccc(Cl)c1 [E4, O=C1C(=CNN(Cc2ccccc2)c2ccccc2)c2ccccc2C(=O)N1c1cccc(Cl)c1] | 0.65
25 | O=C(NC(c1ccccc1)c1ccc2[nH]cnc2c1)C1=NN(C2CCS(=O)(=O)C2)C(=O)CC1 (stereo not shown) [D21, O=C(NC(c1ccccc1)c1ccc2[nH]cnc2c1)C1=NN(C2CCS(=O)(=O)C2)C(=O)CC1] | < 0.5
26 | O=C(c1cccnc1)N1CCc2c([nH]c3ccccc23)C1c1cccc(C(F)(F)F)c1 (stereo not shown) [E6, O=C(c1cccnc1)N1CCc2c([nH]c3ccccc23)C1c1cccc(C(F)(F)F)c1] | 0.55
27 | CN(CCCN(Cc1cccn1Cc1ccc(Cl)cc1)C(=O)Nc1ccccc1)c1ccccc1 [E11, CN(CCCN(Cc1cccn1Cc1ccc(Cl)cc1)C(=O)Nc1ccccc1)c1ccccc1] | < 0.5
28 | COc1ccc(N2C(=O)C3C(Cc4c[nH]c5ccccc45)NC4(C(=O)Nc5ccccc54)C3C2=O)cc1 (stereo not shown) [E24, COc1ccc(N2C(=O)C3C(Cc4c[nH]c5ccccc45)NC4(C(=O)Nc5ccccc54)C3C2=O)cc1] | < 0.5
29 | Cn1nccc1C(=O)N1CCC[C@H](n2c(=O)n(Cc3ccccc3)c3cccnc32)C1 [D15, Cn1nccc1C(=O)N1CCC[C@H](n2c(=O)n(Cc3ccccc3)c3cccnc32)C1] | < 0.5
30 | CC(=O)N1CCc2c(sc3c2c(=O)n(-c2ccccc2)c(=O)n3CC(=O)c2ccc(F)cc2)C1 [D22, CC(=O)N1CCc2c(sc3c2c(=O)n(-c2ccccc2)c(=O)n3CC(=O)c2ccc(F)cc2)C1] | < 0.5
31 | NC(=O)C[C@H]1CN(C(=O)COc2ncccn2)C[C@H]1OC(=O)c1ccccc1 [E17, NC(=O)C[C@H]1CN(C(=O)COc2ncccn2)C[C@H]1OC(=O)c1ccccc1] | < 0.5
32 | O=C(CSc1nc(-c2ccccc2F)nc2c1cnn2-c1ccccc1)NC1CC1 [E23, O=C(CSc1nc(-c2ccccc2F)nc2c1cnn2-c1ccccc1)NC1CC1] | < 0.5
33 | CCn1c(=O)n(CCC(=O)NC(Cc2ccccc2)c2nc3ccccc3[nH]2)c2ccccc21 (stereo not shown) [E2, CCn1c(=O)n(CCC(=O)NC(Cc2ccccc2)c2nc3ccccc3[nH]2)c2ccccc21] | 0.67
34 | O=C(c1ccsc1)N1CCC[C@H](n2c(=O)n(Cc3cccc(F)c3)c3cccnc32)C1 [D8, O=C(c1ccsc1)N1CCC[C@H](n2c(=O)n(Cc3cccc(F)c3)c3cccnc32)C1] | < 0.5
35 | Cc1cccc(Cn2c(=O)c(C(=O)NCc3ccco3)nn(-c3ccccc3F)c2=O)c1 [E8, Cc1cccc(Cn2c(=O)c(C(=O)NCc3ccco3)nn(-c3ccccc3F)c2=O)c1] | 0.66
36 | COCCn1/c(=N/C(=O)c2c(F)cccc2F)sc2cc(S(N)(=O)=O)ccc21 [D23, COCCn1/c(=N/C(=O)c2c(F)cccc2F)sc2cc(S(N)(=O)=O)ccc21] | < 0.5
37 | C/C(=N\Nc1nc2c(c(O)nc(=O)n2C)n1Cc1cccc2ccccc12)c1ccc(O)cc1 [D10, C/C(=N\Nc1nc2c(c(O)nc(=O)n2C)n1Cc1cccc2ccccc12)c1ccc(O)cc1] | < 0.5
38 | CC(=O)N1CCc2c(sc3c2c(=O)n(-c2ccccc2)c(=O)n3Cc2cc(C)ccc2C)C1 [E5, CC(=O)N1CCc2c(sc3c2c(=O)n(-c2ccccc2)c(=O)n3Cc2cc(C)ccc2C)C1] | 0.64
39 | CC(=O)c1ccc(C(=O)N2CCc3c([nH]c4ccccc34)C2c2ccccc2F)s1 (stereo not shown) [E18, CC(=O)c1ccc(C(=O)N2CCc3c([nH]c4ccccc34)C2c2ccccc2F)s1] | < 0.5
40 | O=C1[C@@H]2Cc3c([nH]c4ccccc34)C(c3cccc([N+](=O)[O-])c3)N2C(=O)CN1CC(O)c1ccccc1 (stereo partly shown) [E21, O=C1[C@@H]2Cc3c([nH]c4ccccc34)C(c3cccc([N+](=O)[O-])c3)N2C(=O)CN1CC(O)c1ccccc1] | < 0.5
41 | CC(=O)N1CCc2c(sc3c2c(=O)n(-c2ccc(F)cc2)c(=O)n3Cc2cc(C)ccc2C)C1 [E3, CC(=O)N1CCc2c(sc3c2c(=O)n(-c2ccc(F)cc2)c(=O)n3Cc2cc(C)ccc2C)C1] | 0.92
42 | O=C(c1ccco1)N1CCC[C@H](n2c(=O)n(Cc3ccccc3)c3cccnc32)C1 [D18, O=C(c1ccco1)N1CCC[C@H](n2c(=O)n(Cc3ccccc3)c3cccnc32)C1] | < 0.5
43 | COc1ccccc1-n1c(=O)c2c3c(sc2n(Cc2cccc(F)c2)c1=O)CN(C(C)=O)CC3 [D5, COc1ccccc1-n1c(=O)c2c3c(sc2n(Cc2cccc(F)c2)c1=O)CN(C(C)=O)CC3] | < 0.5
44 | Cc1c(C(=O)N(C)Cc2ccccc2)sc2ncnc(N(C)c3ccccc3)c12 [D14, Cc1c(C(=O)N(C)Cc2ccccc2)sc2ncnc(N(C)c3ccccc3)c12] | < 0.5
45 | CCc1ccccc1N(CC(=O)Nc1ccccc1C(=O)NC(C)CC)S(=O)(=O)c1ccccc1 (stereo not shown) [E9, CCc1ccccc1N(CC(=O)Nc1ccccc1C(=O)NC(C)CC)S(=O)(=O)c1ccccc1] | 0.54
46 | COc1ccc(Cn2cc(C(CC(=O)N3CCCC3)c3ccccc3F)c3ccccc32)cc1 (stereo not shown) [D4, COc1ccc(Cn2cc(C(CC(=O)N3CCCC3)c3ccccc3F)c3ccccc32)cc1] | < 0.5

— paper PMC10444862, “Using macromolecular electron densities to improve the enrichment of active compounds in virtual screening” (Communications Chemistry, 2023)
